Here are results for 36 compounds from patent publication US7435837B2, “Dihydrobenzofuranyl alkanamine derivatives and methods for using same” (Wyeth, priority 2003, dated 2008).

A word on the Ki: it is the equilibrium dissociation constant of an inhibitor or competing ligand from its target.

This assay addresses T1, human 5-hydroxytryptamine-2C (h5-HT2C) receptor (Homo sapiens, UniProt P28335).
T1 construct: expressed in transfected cells; host or cells: CHO (Chinese Hamster Ovary) cells; membranes
T1 sequence (P28335 33-458): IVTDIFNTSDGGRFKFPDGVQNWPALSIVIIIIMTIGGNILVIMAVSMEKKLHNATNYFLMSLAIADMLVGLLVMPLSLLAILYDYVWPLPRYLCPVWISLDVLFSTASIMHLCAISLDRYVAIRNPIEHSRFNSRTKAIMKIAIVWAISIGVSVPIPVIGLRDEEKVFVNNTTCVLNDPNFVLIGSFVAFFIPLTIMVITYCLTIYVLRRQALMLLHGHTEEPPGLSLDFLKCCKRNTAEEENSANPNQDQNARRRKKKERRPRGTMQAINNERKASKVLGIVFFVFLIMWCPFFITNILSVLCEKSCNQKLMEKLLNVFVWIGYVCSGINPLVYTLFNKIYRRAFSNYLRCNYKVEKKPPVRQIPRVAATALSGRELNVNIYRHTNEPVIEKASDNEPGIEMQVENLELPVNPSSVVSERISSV
As to the kind of experiment: [125I]DOI binding to membranes of CHO cells expressing the human 5-HT2C receptor. Particulars: [125I]DOI radioligand, CHO cell membranes, room temperature 60 min; read-out: 5-HT2C Affinity Ki.
For the compound `CNCC1Cc2cc(-c3ccccc3)cc(-c3ccccc3Cl)c2O1` (racemic) [Example 505, (±)-{[7-(2-chlorophenyl)-5-phenyl-2,3-dihydro-1-benzofuran-2-yl]methyl}methylamine], the inhibitory constant (Ki) turned out to be 371 nM.
As for `CNCC1Cc2cc(-c3ccccc3)cc(-c3cccc(Cl)c3)c2O1` (racemic) [Example 506, (±)-{[7-(3-chlorophenyl)-5-phenyl-2,3-dihydro-1-benzofuran-2-yl]methyl}methylamine], the Ki was determined as 1600 nM.
In the case of `CNCC1Cc2cc(-c3ccccc3)cc(-c3ccc(Cl)cc3)c2O1` (racemic) [Example 507, (±)-{[7-(4-chlorophenyl)-5-phenyl-2,3-dihydro-1-benzofuran-2-yl]methyl}methylamine] it was 2730 nM; in that of `CNCC1Cc2cc(-c3ccccc3)cc(-c3ccccc3F)c2O1` (racemic) [Example 508, (±)-{[7-(2-fluorophenyl)-5-phenyl-2,3-dihydro-1-benzofuran-2-yl]methyl}methylamine], 1800 nM.
In the case of `CNCC1Cc2cc(-c3ccccc3)cc(-c3ccccc3C)c2O1` (racemic) [Example 511, (±)-{[7-(2-methylphenyl)-5-phenyl-2,3-dihydro-1-benzofuran-2-yl]methyl}methylamine] it was 248 nM.
As for `CNCC1Cc2cc(-c3ccccc3)cc(-c3cccc(C)c3)c2O1` (racemic) [Example 512, (±)-{[7-(3-methylphenyl)-5-phenyl-2,3-dihydro-1-benzofuran-2-yl]methyl}methylamine], the inhibitory constant (Ki) stood at 810 nM.
As for `CNCC1Cc2cc(-c3ccccc3)cc(-c3ccc(C)cc3)c2O1` (racemic) [Example 513, (±)-{[7-(4-methylphenyl)-5-phenyl-2,3-dihydro-1-benzofuran-2-yl]methyl}methylamine], the figure is 1150 nM; as for `CNCC1Cc2cc(-c3ccccc3)cc(-c3ccccc3OC)c2O1` (racemic) [Example 514, (±)-{[7-(2-methoxyphenyl)-5-phenyl-2,3-dihydro-1-benzofuran-2-yl]methyl}methylamine], 242 nM; as for `CNCC1Cc2cc(-c3ccccc3)cc(-c3cccc(OC)c3)c2O1` (racemic) [Example 515, (±)-{[7-(3-methoxyphenyl)-5-phenyl-2,3-dihydro-1-benzofuran-2-yl]methyl}methylamine], 965 nM.
Consider `CNCC1Cc2cc(-c3ccccc3)cc(-c3ccc(OC)cc3)c2O1` (racemic) [Example 516, (±)-{[7-(4-methoxyphenyl)-5-phenyl-2,3-dihydro-1-benzofuran-2-yl]methyl}methylamine], for which the Ki came out at 1580 nM.
In the case of `CNCC1Cc2cc(-c3ccccc3)cc(-c3ccc(F)cc3F)c2O1` (racemic) [Example 517, (±)-{[7-(2,4-difluorophenyl)-5-phenyl-2,3-dihydro-1-benzofuran-2-yl]methyl}methylamine] it was 2140 nM; in that of `CNCC1Cc2cc(C(F)(F)F)cc(-c3cccc(C)c3)c2O1` (racemic) [Example 519, (±)-N-methyl-1-[7-(3-methylphenyl)-5-(trifluoromethyl)-2,3-dihydro-1-benzofuran-2-yl]methanamine], 488 nM.
In the case of `CNCC1Cc2cc(C(F)(F)F)cc(-c3cccc(F)c3)c2O1` (racemic) [Example 520, (±)-N-methyl-1-[7-(3-fluorophenyl)-5-(trifluoromethyl)-2,3-dihydro-1-benzofuran-2-yl]methanamine] it was 372 nM; in that of `CNCC1Cc2cc(C(F)(F)F)cc(-c3cccc(F)c3F)c2O1` (racemic) [Example 521, (±)-N-methyl-1-[7-(2,3-difluorophenyl)-5-(trifluoromethyl)-2,3-dihydro-1-benzofuran-2-yl]methanamine], 246 nM; in that of `CNCC1Cc2cc(C(F)(F)F)cc(-c3ccc(F)c(F)c3)c2O1` (racemic) [Example 522, (±)-N-methyl-1-[7-(3,4-difluorophenyl)-5-(trifluoromethyl)-2,3-dihydro-1-benzofuran-2-yl]methanamine], 474 nM.
As for `CNCC1Cc2cc(C(F)(F)F)cc(-c3cc(F)ccc3F)c2O1` (racemic) [Example 523, (±)-N-methyl-1-[7-(2,5-difluorophenyl)-5-(trifluoromethyl)-2,3-dihydro-1-benzofuran-2-yl]methanamine], the figure is 61 nM.
Consider `CNCC1Cc2cc(C(F)(F)F)cc(-c3cccc(Cl)c3Cl)c2O1` (racemic) [Example 524, (±)-N-methyl-1-[7-(2,3-dichlorophenyl)-5-(trifluoromethyl)-2,3-dihydro-1-benzofuran-2-yl]methanamine], for which the Ki worked out at 136 nM.
Turning to `CNCC1Cc2cc(C(F)(F)F)cc(-c3ccc(F)c(Cl)c3)c2O1` (racemic) [Example 525, (±)-{[7-(3-chloro-4-fluorophenyl)-5-(trifluoromethyl)-2,3-dihydro-1-benzofuran-2-yl]methyl}methylamine], the Ki amounted to 559 nM.
In the case of `CNCC1Cc2cc(C(F)(F)F)cc(-c3cc(C(F)(F)F)cc(C(F)(F)F)c3)c2O1` (racemic) [Example 527, (±)-{[7-[3,5-bis(trifluoromethyl)phenyl]-5-(trifluoromethyl)-2,3-dihydro-1-benzofuran-2-yl]methyl}methylamine], the Ki turned out to be 4740 nM.
On to `CNCC1Cc2cc(-c3ccccc3C)cc(F)c2O1` (racemic) [Example 528, (±)-{[7-fluoro-5-(2-methylphenyl)-2,3-dihydro-1-benzofuran-2-yl]methyl}methylamine], for which the Ki amounted to 1090 nM.
For the compound `CNCC1Cc2cc(-c3ccccc3Cl)cc(F)c2O1` (racemic) [Example 529, (±)-{[7-fluoro-5-(2-chlorophenyl)-2,3-dihydro-1-benzofuran-2-yl]methyl}methylamine], the Ki came out at 616 nM.
`CNCC1Cc2cc(-c3ccccc3F)cc(F)c2O1` (racemic) [Example 530, (±)-{[7-fluoro-5-(2-fluorophenyl)-2,3-dihydro-1-benzofuran-2-yl]methyl}methylamine]: the Ki turned out to be 915 nM.
In the case of `CNCC1Cc2cc(-c3ccccc3C(F)(F)F)cc(F)c2O1` (racemic) [Example 531, (±)-{7-fluoro-5-[2-(trifluoromethyl)phenyl]-2,3-dihydro-1-benzofuran-2-yl}methyl)methylamine] it was 409 nM.
As for `CNCC1Cc2cc(-c3ccccc3OC)cc(F)c2O1` (racemic) [Example 532, (±)-{7-fluoro-5-[2-methoxyphenyl]-2,3-dihydro-1-benzofuran-2-yl}methyl)methylamine], the figure is 3350 nM.
In the case of `CNCC1Cc2cc(-c3cccc(C)c3)cc(F)c2O1` (racemic) [Example 533, (±)-{7-fluoro-5-[3-methylphenyl]-2,3-dihydro-1-benzofuran-2-yl}methyl)methylamine] it was 1520 nM; in that of `CNCC1Cc2cc(-c3cccc(Cl)c3)cc(F)c2O1` (racemic) [Example 534, (±)-{7-fluoro-5-[3-chlorophenyl]-2,3-dihydro-1-benzofuran-2-yl}methyl)methylamine], 1050 nM.
Consider `CNCC1Cc2cc(-c3cccc(F)c3)cc(F)c2O1` (racemic) [Example 535, (±)-{[7-fluoro-5-(3-fluorophenyl)-2,3-dihydro-1-benzofuran-2-yl]methyl}methylamine], for which the Ki was found to be 1090 nM.
As for `CNCC1Cc2cc(-c3cccc(C(F)(F)F)c3)cc(F)c2O1` (racemic) [Example 536, (±)-{7-fluoro-5-[3-(trifluoromethyl)phenyl]-2,3-dihydro-1-benzofuran-2-yl}methyl)methylamine], the figure is 1120 nM; as for `CNCC1Cc2cc(-c3cccc(OC)c3)cc(F)c2O1` (racemic) [Example 537, (±)-{7-fluoro-5-[3-methoxyphenyl]-2,3-dihydro-1-benzofuran-2-yl}methyl)methylamine], 1690 nM.
As for `CNCC1Cc2cc(-c3ccc(C)cc3)cc(F)c2O1` (racemic) [Example 538, (±)-{7-fluoro-5-[4-methylphenyl]-2,3-dihydro-1-benzofuran-2-yl}methyl)methylamine], the figure is 380 nM; as for `CNCC1Cc2cc(-c3ccc(Cl)cc3)cc(F)c2O1` (racemic) [Example 539, (±)-{7-fluoro-5-[4-chlorophenyl]-2,3-dihydro-1-benzofuran-2-yl}methyl)methylamine], 209 nM.
Regarding `CNCC1Cc2cc(-c3ccc(F)cc3)cc(F)c2O1` (racemic) [Example 540, (±)-{[7-fluoro-5-(4-fluorophenyl)-2,3-dihydro-1-benzofuran-2-yl]methyl}methylamine], the Ki turned out to be 486 nM.
For the compound `CNCC1Cc2cc(-c3ccc(C(F)(F)F)cc3)cc(F)c2O1` (racemic) [Example 541, (±)-{7-fluoro-5-[4-(trifluoromethyl)phenyl]-2,3-dihydro-1-benzofuran-2-yl}methyl)methylamine], the Ki turned out to be 316 nM.
In the case of `CNCC1Cc2cc(-c3ccc(OC)cc3)cc(F)c2O1` (racemic) [Example 542, (±)-{7-fluoro-5-[4-methoxyphenyl]-2,3-dihydro-1-benzofuran-2-yl}methyl)methylamine] it was 372 nM; in that of `NCCC1Cc2ccc(Cl)c(-c3ccccc3Cl)c2O1` (racemic) [Example 552, (±)-{2-[6-chloro-7-(2-chlorophenyl)-2,3-dihydro-1 benzofuran-2-yl]ethyl}amine], 0.3 nM; in that of `NCC1Cc2cccc(-c3ccccc3F)c2O1` (single isomer, unassigned; (+)) [Example 51, (+)-1-[7-(2-fluorophenyl)-2,3-dihydro-1-benzofuran-2-yl]methanamine], 1 nM.
